Reference: patent US7446195B2, “High affinity thiophene-based and furan-based kinase ligands” (Schering Corporation, priority 2005, dated 2008)

Target: CDK-2 (Homo sapiens, UniProt P24941)
Assay: CDK-2 inhibition (Table 1; fluorescence polarization displacement assay)
Format: binding
Settings: inhibitory effectiveness toward CDK-2
Protocol: The affinity of lead inhibitors binding to CDK-2 and CDK-2/cyclin A were determined by measuring a Ki value using a fluorescence polarization displacement assay. The deacetylated form of compound BMS-250595 was reacted with Alexa Fluor 647 to generate a compound (BMS-Alexa Fluor647) that bound to both proteins and provided a signal for fluorescence polarization displacement. Binding assays were performed in a 384 well Costar NBS coated plate. A total volume of […] contained concentrations of CDK-2 or CDK-2/cyclin A at […], respectively. The concentration of BMS-Alexa Fluor647 was 50 nM. Serial dilutions of compounds were added to 12 wells. The final buffer concentration was 10 mM Hepes, pH 7.5, 150 mM NaCl, and 1 mM DTT. Samples were incubated at room temperature for 15 minutes and then read in an Analyst HT instrument using an excitation and emission wavelength of 580 and 680 nm, respectively. The […] curve fitting tool described by Zhang et al., 2004 (Zhang R., Mayhood T., Lipari P., Wang Y., Durkin D., Syto R., Gesell J., McNemar C., and Windsor W., Analytical Biochemistry 331 (2004) 138-146)

## COc1ccc(C(=O)Nc2ccc(C(=O)N3CCC(Oc4cnccn4)CC3)s2)c(C)c1 [Compound 76]
  IC50: 1 to 40 µM

## O=C(Nc1ccc(-n2cncn2)c(F)c1)c1ccc(C(=O)Nc2ccccc2-c2ccccc2)s1 [Compound 77]
  IC50: 1 to 40 µM

## O=C(NCCc1cccnc1)c1ccc(C(=O)Nc2ccc(-n3cncn3)cc2)s1 [Compound 78]
  IC50: 1 to 40 µM

## COc1ccc(NC(=O)c2ccc(C(=O)Nc3ccc(-n4cncn4)cc3)s2)c(C(=O)O)c1 [Compound 79]
  IC50: 1 to 40 µM

## O=C(Nc1ccc(-n2cncn2)cc1)c1ccc(C(=O)NC2CC2)s1 [Compound 80]
  IC50: ≥ 40 µM

## CC(C)NC(=O)c1ccc(C(=O)Nc2ccc(-n3cncn3)cc2)s1 [Compound 81]
  IC50: ≥ 40 µM

## O=C(Nc1ccc(-n2cncn2)cc1)c1ccc(C(=O)NC2CCC2)s1 [Compound 82]
  IC50: ≥ 40 µM

## CC(C)CNC(=O)c1ccc(C(=O)Nc2ccc(-n3cncn3)cc2)s1 [Compound 83]
  IC50: ≥ 40 µM

## O=C(Nc1ccc(-n2cncn2)cc1)c1ccc(C(=O)N2CCCCC2)s1 [Compound 84]
  IC50: ≥ 40 µM

## O=C(Nc1ccc(-n2cncn2)cc1)c1ccc(C(=O)N2CCOCC2)s1 [Compound 85]
  IC50: ≥ 40 µM

## CCCCN(C)C(=O)c1ccc(C(=O)Nc2ccc(-n3cncn3)cc2)s1 [Compound 86]
  IC50: ≥ 40 µM

## CN(C)CCNC(=O)c1ccc(C(=O)Nc2ccc(-n3cncn3)cc2)s1 [Compound 87]
  IC50: ≥ 40 µM

## COC[C@H](C)NC(=O)c1ccc(C(=O)Nc2ccc(-n3cncn3)cc2)s1 [Compound 88]
  IC50: ≥ 40 µM

## O=C(Nc1ccccc1)c1ccc(C(=O)Nc2ccc(-n3cncn3)cc2)s1 [Compound 89]
  IC50: ≥ 40 µM

## O=C(Nc1ccc(-n2cncn2)cc1)c1ccc(C(=O)Nc2ccccn2)s1 [Compound 90]
  IC50: ≥ 40 µM

## O=C(Nc1ccc(-n2cncn2)cc1)c1ccc(C(=O)NC2CCCCC2)s1 [Compound 91]
  IC50: ≥ 40 µM

## O=C(Nc1ccc(-n2cncn2)cc1)c1ccc(C(=O)Nc2nccs2)s1 [Compound 92]
  IC50: ≥ 40 µM

## O=C(NC[C@H]1CCCO1)c1ccc(C(=O)Nc2ccc(-n3cncn3)cc2)s1 [Compound 93]
  IC50: ≥ 40 µM

## O=C(NC[C@@H]1CCCO1)c1ccc(C(=O)Nc2ccc(-n3cncn3)cc2)s1 [Compound 94]
  IC50: ≥ 40 µM

## CC(CN(C)C)NC(=O)c1ccc(C(=O)Nc2ccc(-n3cncn3)cc2)s1 (stereo not shown) [Compound 95]
  IC50: ≥ 40 µM

## CN(C(=O)c1ccc(C(=O)Nc2ccc(-n3cncn3)cc2)s1)c1ccccc1 [Compound 96]
  IC50: ≥ 40 µM

## O=C(NCc1ccccn1)c1ccc(C(=O)Nc2ccc(-n3cncn3)cc2)s1 [Compound 97]
  IC50: ≥ 40 µM

## O=C(NCc1ccncc1)c1ccc(C(=O)Nc2ccc(-n3cncn3)cc2)s1 [Compound 98]
  IC50: ≥ 40 µM

## O=C(NCc1cccnc1)c1ccc(C(=O)Nc2ccc(-n3cncn3)cc2)s1 [Compound 99]
  IC50: ≥ 40 µM

## Cc1ccnc(NC(=O)c2ccc(C(=O)Nc3ccc(-n4cncn4)cc3)s2)c1 [Compound 100]
  IC50: ≥ 40 µM

## Cc1cccc(NC(=O)c2ccc(C(=O)Nc3ccc(-n4cncn4)cc3)s2)n1 [Compound 101]
  IC50: ≥ 40 µM

## CN(Cc1ccco1)C(=O)c1ccc(C(=O)Nc2ccc(-n3cncn3)cc2)s1 [Compound 102]
  IC50: ≥ 40 µM

## O=C(NCCc1c[nH]cn1)c1ccc(C(=O)Nc2ccc(-n3cncn3)cc2)s1 [Compound 103]
  IC50: ≥ 40 µM

## O=C(Nc1ccc(-n2cncn2)cc1)c1ccc(C(=O)N[C@@H]2CC3CCC2C3)s1 (stereo partly shown) [Compound 104]
  IC50: ≥ 40 µM

## Cc1cc(CNC(=O)c2ccc(C(=O)Nc3ccc(-n4cncn4)cc3)s2)no1 [Compound 105]
  IC50: ≥ 40 µM

## O=C(NCC1CCCCC1)c1ccc(C(=O)Nc2ccc(-n3cncn3)cc2)s1 [Compound 106]
  IC50: ≥ 40 µM

## CN(Cc1ccccc1)C(=O)c1ccc(C(=O)Nc2ccc(-n3cncn3)cc2)s1 [Compound 107]
  IC50: ≥ 40 µM

## O=C(NCCc1ccccc1)c1ccc(C(=O)Nc2ccc(-n3cncn3)cc2)s1 [Compound 108]
  IC50: ≥ 40 µM

## Cc1cc(C)nc(NC(=O)c2ccc(C(=O)Nc3ccc(-n4cncn4)cc3)s2)c1 [Compound 109]
  IC50: ≥ 40 µM

## COc1ccccc1NC(=O)c1ccc(C(=O)Nc2ccc(-n3cncn3)cc2)s1 [Compound 110]
  IC50: ≥ 40 µM

## Cc1cnc(CNC(=O)c2ccc(C(=O)Nc3ccc(-n4cncn4)cc3)s2)cn1 [Compound 111]
  IC50: ≥ 40 µM

## C[C@@H](NC(=O)c1ccc(C(=O)Nc2ccc(-n3cncn3)cc2)s1)C1CCCCC1 [Compound 112]
  IC50: ≥ 40 µM

## O=C(Nc1ccc(-n2cncn2)cc1)c1ccc(C(=O)N[C@@H]2CCc3ccccc32)s1 [Compound 113]
  IC50: ≥ 40 µM

## O=C(Nc1ccc(-n2cncn2)cc1)c1ccc(C(=O)NC2Cc3ccccc3C2)s1 [Compound 114]
  IC50: ≥ 40 µM

## O=C(NCc1ccc2c(c1)CCO2)c1ccc(C(=O)Nc2ccc(-n3cncn3)cc2)s1 [Compound 115]
  IC50: ≥ 40 µM

## O=C(Nc1ccc(-n2cncn2)cc1)c1ccc(C(=O)N2CCCC(c3ccccc3)C2)s1 (stereo not shown) [Compound 116]
  IC50: ≥ 40 µM

## O=C(Nc1ccc(-n2cncn2)cc1)c1ccc(C(=O)N2CCN(c3ccccc3)CC2)s1 [Compound 117]
  IC50: ≥ 40 µM

## NS(=O)(=O)c1ccc(NC(=O)c2ccc(C(=O)Nc3ccc(-n4cncn4)cc3)s2)cc1 [Compound 118]
  IC50: ≥ 40 µM

## COc1cccc(C2CCN(C(=O)c3ccc(C(=O)Nc4ccc(-n5cncn5)cc4)s3)C2)c1 (stereo not shown) [Compound 119]
  IC50: ≥ 40 µM

## COc1ccc(NC(=O)c2ccc(C(=O)Nc3ccc(N4CCOCC4)cc3)s2)c(C)c1 [Compound 120]
  IC50: ≥ 40 µM

## COc1ccc(NC(=O)c2ccc(C(=O)Nc3ccc(N4CCCCC4)cc3)s2)c(C)c1 [Compound 121]
  IC50: ≥ 40 µM

## COc1ccc(NC(=O)c2ccc(C(=O)Nc3ccc(N4CCNCC4)cc3)s2)c(C)c1 [Compound 122]
  IC50: ≥ 40 µM

## COc1ccc(NC(=O)c2ccc(C(=O)Nc3ccc(N4CCN(C)CC4)cc3)s2)c(C)c1 [Compound 123]
  IC50: ≥ 40 µM

## COc1ccc(NC(=O)c2ccc(C(=O)Nc3ccc(N(C)C)cc3)s2)c(C)c1 [Compound 124]
  IC50: ≥ 40 µM

## COc1ccc(NC(=O)c2ccc(C(=O)Nc3ccc(OCCN(C)C)cc3)s2)c(C)c1 [Compound 125]
  IC50: ≥ 40 µM

## COC(=O)c1ccc(NC(=O)c2ccc(C(=O)Nc3ccc(OC)cc3C)s2)cc1 [Compound 126]
  IC50: ≥ 40 µM

## COc1ccc(NC(=O)c2ccc(C(=O)Nc3ccc(-c4csnn4)cc3)s2)c(C)c1 [Compound 127]
  IC50: ≥ 40 µM

## COc1ccc(NC(=O)c2ccc(C(=O)Nc3ccc(-n4cccn4)cc3)s2)c(C)c1 [Compound 129]
  IC50: ≥ 40 µM

## COc1ccc(NC(=O)c2ccc(C(=O)Nc3ccc4c(c3)OCO4)s2)c(C)c1 [Compound 130]
  IC50: ≥ 40 µM

## COc1ccc(NC(=O)c2ccc(C(=O)Nc3ccc(-c4cnco4)cc3)s2)c(C)c1 [Compound 131]
  IC50: ≥ 40 µM

## COc1ccc(NC(=O)c2ccc(C(=O)Nc3ccc(CN)cc3)s2)c(C)c1 [Compound 132]
  IC50: ≥ 40 µM

## COc1ccc(NC(=O)c2ccc(C(=O)Nc3ccc(N4CCOCC4)nc3)s2)c(C)c1 [Compound 133]
  IC50: ≥ 40 µM

## COc1ccc(NC(=O)c2ccc(C(=O)Nc3cccc(-c4cnco4)c3)s2)c(C)c1 [Compound 134]
  IC50: ≥ 40 µM

## C[C@H](O)CNC(=O)c1ccc(C(=O)Nc2ccc(-n3cncn3)cc2)s1 [Compound 135]
  IC50: ≥ 40 µM

## O=C(Nc1ccc(-n2cncn2)cc1)c1ccc(C(=O)N[C@@H]2CCNC2)s1 [Compound 136]
  IC50: ≥ 40 µM

## CN1CCN(C(=O)c2ccc(C(=O)Nc3ccc(-n4cncn4)cc3)s2)CC1 [Compound 137]
  IC50: ≥ 40 µM

## O=C(NC[C@@H]1CCNC1)c1ccc(C(=O)Nc2ccc(-n3cncn3)cc2)s1 [Compound 138]
  IC50: ≥ 40 µM

## O=C(Nc1ccc(-n2cncn2)cc1)c1ccc(C(=O)NC2CCNCC2)s1 [Compound 139]
  IC50: ≥ 40 µM

## CN(C)CCCNC(=O)c1ccc(C(=O)Nc2ccc(-n3cncn3)cc2)s1 [Compound 140]
  IC50: ≥ 40 µM

## CN1CCC(NC(=O)c2ccc(C(=O)Nc3ccc(-n4cncn4)cc3)s2)CC1 [Compound 141]
  IC50: ≥ 40 µM

## Cc1cc(NC(=O)c2ccc(C(=O)Nc3ccc(-n4cncn4)cc3)s2)ccc1F [Compound 142]
  IC50: ≥ 40 µM

## Cn1cnc(CCNC(=O)c2ccc(C(=O)Nc3ccc(-n4cncn4)cc3)s2)c1 [Compound 143]
  IC50: ≥ 40 µM

## O=C(NCCN1CCCCC1)c1ccc(C(=O)Nc2ccc(-n3cncn3)cc2)s1 [Compound 144]
  IC50: ≥ 40 µM

## CN1CCCC1CCNC(=O)c1ccc(C(=O)Nc2ccc(-n3cncn3)cc2)s1 (stereo not shown) [Compound 145]
  IC50: ≥ 40 µM

## O=C(NCCN1CCNC1=O)c1ccc(C(=O)Nc2ccc(-n3cncn3)cc2)s1 [Compound 146]
  IC50: ≥ 40 µM

## O=C(NCCN1CCOCC1)c1ccc(C(=O)Nc2ccc(-n3cncn3)cc2)s1 [Compound 147]
  IC50: ≥ 40 µM

## O=C(Nc1ccc(-n2cncn2)cc1)c1ccc(C(=O)Nc2ccc3c(c2)OCO3)s1 [Compound 148]
  IC50: ≥ 40 µM

## COc1ccc(NC(=O)c2ccc(C(=O)Nc3ccc(-n4cncn4)cc3)s2)cc1F [Compound 149]
  IC50: ≥ 40 µM

## O=C(Nc1ccc(-n2cncn2)cc1)c1ccc(C(=O)N2CCCC2c2cccnc2)s1 (stereo not shown) [Compound 150]
  IC50: ≥ 40 µM

## COc1ccc(NC(=O)c2ccc(C(=O)Nc3ccc(-n4cncn4)cc3)s2)cc1OC [Compound 151]
  IC50: ≥ 40 µM

## O=C(Nc1ccc(-n2cncn2)cc1)c1ccc(C(=O)N2CCN(C3CCCC3)CC2)s1 [Compound 152]
  IC50: ≥ 40 µM
